Measurements from article PMC5790502, “The anti-rheumatic drug, leflunomide, synergizes with MEK inhibition to suppress melanoma growth” (Oncotarget, 2017).
pIC50: −log10 of the molar value.

What was measured:
phospho-ERK = test: Western blot of phospho-ERK; assay type: cell-based, human; settings: A375 and M202 cells; 0.1 or 1 µM selumetinib
Experimental: A375 melanoma cells were seeded and treated for 72 hours in varying drug conditions. Total protein extracts were then made using high SDS content lysis buffer (60 mM sucrose, 65 mM Tris-HCl, pH 6.8. 3% SDS). Protein concentration was determined using the DC protein assay (BIORAD). 10 μg of whole-cell protein lysate was loaded onto a 10% SDS-PAGE gel and transferred onto polyvinylidene difluoride membranes (Bio-Rad). A standard Western blot protocol was used for detection of the specific proteins as previously described.
Antibodies used included; Rabbit polyclonal phospho-ERK (1:1000, Cell Signalling Technology); Rabbit polyclonal phospho-p44/42 MAPK (1:1000, ERK1/2; Cell Signalling Technology); Mouse monoclonal HSC-70 (1:1000, Santa-Cruz Biotechnology); Rabbit polyclonal Mcl-1 (1:500, Santa-Cruz Biotechnology); Rabbit polyclonal anti-BIM (1:500, Merck-Millipore); Rabbit polyclonal PARP (1:1000, Cell Signalling Technology); Rabbit polyclonal PUMA (1:1000, Cell Signalling Technology); anti-rabbit IgG HRP linked secondary antibody (1:2000, Jackson ImmunoResearch); Anti-mouse IgG HRP linked secondary antibody (1:2000, Jackson ImmunoResearch); All anti-rabbit IgG HRP linked secondary antibody (1:2000, Cell Signalling Technology).

A375 melanoma cells [1] = test: Cell viability assay (CellTiter-Glo); assay type: cell-based; settings: Homo sapiens, A-375, 72 hours treatment
Experimental: (§1) Cells that had been seeded 24 hours earlier on poly-L-lysine coated 96-well plates (Sigma-Aldrich) to subconfluency, were treated with drugs at the indicated concentrations for 72 hours. Cytochalasin D (Sigma Aldrich) was used as a positive control. All conditions were repeated in triplicate. Cell viability was determined on day 5 using the CellTiter-Glo Luminescence assay (Promega), according to the manufacturer’s instructions. Luminescence from the plate was read on a BMG LabTech Omega Series plate reader (data analyzed using OMEGA software). Cell viability was calculated as a percentage of the mean vehicle control.
(§2) For pharmacological analysis, IC50 values were generated using Prism Graphpad software (Graphpad Software, Inc.) and calculated using a nonlinear regression model. Combinatorial drug synergy was assessed by determination of combination index (CI), which was calculated using CalcuSyn (Biosoft) software using the median effects methods as described by Chou and Talalay, CI values less than 0.7 indicated synergy, 0.7–0.9 weak synergy, 0.9–1.1 additivity, 1.1–1.45 indicated weak antagonism and greater than 1.45 antagonism.

M202 melanoma cells = test: Cell viability assay (CellTiter-Glo); assay type: cell-based; settings: Homo sapiens, 72 hours treatment
Experimental: as §1, §2

M229 melanoma cells = test: Cell viability assay (CellTiter-Glo); assay type: cell-based; settings: Homo sapiens, 72 hours treatment
Experimental: as §1, §2

M285 melanoma cells = test: Cell viability assay (CellTiter-Glo); assay type: cell-based; settings: Homo sapiens, 72 hours treatment
Experimental: as §1, §2

M375 melanoma cells = test: Cell viability assay (CellTiter-Glo); assay type: cell-based; settings: Homo sapiens
Experimental: as §1, §2

SKmel28 melanoma cells = test: Cell viability assay (CellTiter-Glo); assay type: cell-based; settings: Homo sapiens, SK-MEL-28, 72 hours treatment
Experimental: as §1, §2

[2] = system: rhabdomyosarcoma cells (RD-1); test: Cell viability assay (CellTiter-Glo); assay type: cell-based; settings: Homo sapiens; for pIC50: RD1, 72 hours treatment
Experimental: as §1, §2

M296 melanoma cells = test: Cell viability assay (CellTiter-Glo); assay type: cell-based; settings: Homo sapiens, 72 hours treatment
Experimental: as §1, §2

SKmel5 melanoma cells = test: Cell viability assay (CellTiter-Glo); assay type: cell-based; settings: Homo sapiens; for pIC50: SK-MEL-5, 72 hours treatment
Experimental: as §1, §2

M375 melanoma tumors = test: Mouse xenograft study; assay type: in vivo; settings: M375 xenograft in SCID mice, selumetinib 30 mg/kg OG; for tumor volume: 12 days, leflunomide 7.5 mg/kg IP daily, vs vehicle control
Experimental: 8–10-week-old female severe immunodeficiency (SCID) mice were purchased from Charles River Laboratories. All procedures were performed under UK Home Office approved protocols and the University of East Anglia local guidelines. Experiments were conducted strictly in accordance with the locally approved animal handling protocol.
A total of 3 × 10^6 M375 melanoma cells were injected subcutaneously into 40 SCID mice. After approximately 4 weeks when the tumors were palpable, the mice were randomized into 4 arms. The 4 arms were; vehicle alone, leflunomide alone, selumetinib alone and leflunomide and selumetinib in combination. There were 10 mice in each arm. The drug regime was administered for 12 days. Leflunomide was administered by intraperitoneal (IP) injection daily at 7.5 mg/kg. Selumetinib was administered by oral gavage (OG) twice daily at 30 mg/kg for the first two days and was then delivered once daily thereafter. The tumor volume was measured every three days with calipers. Tumor volume was measured by the formula 0.52 (length × width^2). At the end of the experiment, the mice were culled and the excised tumors were weighed.

A375 melanoma cells [3] = test: Cell cycle analysis (PI staining, flow cytometry); assay type: cell-based, human; settings: 72 hours
Experimental: Cell cycle analysis was carried out as previously detailed. In brief, A375 melanoma cells were seeded in 24-well plates at a density of 4,600 cells per well. After 24 hours, the cells were treated with vehicle, 25, 50 and 100 µM of Leflunomide. After 72 hours, the cells were trypsinised and pelleted along with the culture medium. Cells were washed in PBS and fixed in ice-cold absolute ethanol. Cells were then stained with 200 µl PI/RNase A solution (Cell Signalling Technology). Cells were analyzed using a BD Accuri™ C6 flow cytometer (BD Biosciences) and the data was analyzed using the BD Accuri™ C6 Software and FlowJo (FLOWJO, LLC).

[4] = system: Primary human melanocytes adult (HEMa-LP); test: Cell viability assay (CellTiter-Glo); assay type: cell-based; settings: Melanocyte, 72 hours treatment
Experimental: as §1, §2

[5] = system: Human embryonic kidney cells (HEK-293); test: Cell viability assay (CellTiter-Glo); assay type: cell-based; settings: HEK293, 72 hours treatment
Experimental: as §1, §2

A375 melanoma cells [6] = test: BrdU proliferation assay; assay type: cell-based, human; settings: increasing concentrations of leflunomide, 72 hours
Experimental: A375 melanoma cells were seeded in 12-well plates at a density of 10,000 cells and grown on gelatin-coated coverslips. After 24 hours leflunomide was added to cells at 12.5, 25 or 50 μM (or a vehicle control) for 72 hours. Cells were pulsed for 2 hours with BrdU (Sigma-Aldrich) at a final working concentration of 10 μM. Cells were permeabilised in 2N-HCL + 0.5% Triton X-100. Primary BrdU antibody diluted 1:100 in 1% goat serum was applied and incubated overnight at 4°C followed by Alexa Fluor-488 anti-mouse secondary antibody Cells were counterstained with DAPI. Cells were mounted onto slides using hydromount and examined under a Zeiss AxioPlan 2ie widefield microscope with an AxioCam HRm CCD camera. Images were analyzed using Image J software.

A375 melanoma cells [7] = test: Annexin V apoptosis assay; assay type: cell-based, human; settings: 72 hours
Experimental: Apoptosis was assessed using an Annexin V-FITC Apoptosis detection kit FITC (eBioscience), according to the manufacturer’s instructions. Briefly, cells were seeded in 24-well plates at a density of 4,600 cells per well. After 24 hours, the cells were treated with vehicle or leflunomide (at concentrations of 25, 50 and 100 µM). After 72 hours cells were trypsinised, washed in PBS and treated with fluorochrome-conjugated Annexin V and propidium iodide as indicated in the protocol. Cells were analyzed on the BD Accuri™ C6 flow cytometer and the data analyzed using the instrument software.

A375 melanoma cells [8] = test: Mitotracker green staining (mitochondrial mass); assay type: cell-based, human
Experimental: (§3) www.impactjournals.com/oncotarget/ Oncotarget, Supplementary Materials 2017 The anti-rheumatic drug, leflunomide, synergizes with MEK inhibition to suppress melanoma growth
(§4) Mitochondrial membrane potential [ΔΨM] assay REFERENCES
(§5) A375 melanoma cells were seeded in 12 well plates at 1. Tap WD, Gong KW, Dering J, Tseng Y, Ginther C, Pauletti a density of 10,000 cells per 1 ml of medium per well. After G, Glaspy JA, Essner R, Bollag G, Hirth P, Zhang C, Slamon 24 hours, the cells were treated with vehicle or leflunomide. DJ. […] Haluska FG, Tsao H, Wu H, Haluska FS, Lazar A, Goel V. of fresh PBS before being analyzed on the BD AccuriTM C6 Genetic alterations in signaling pathways in melanoma. […] Samples were exposed to 488 nm excitation, Cancer Res. 2006; 12:2301s–2307s. with JC-1 green monomer fluorescence detected at 533/30 3. von Euw E, Atefi M, Attar N, Chu C, Zachariah S, Burgess BL, nm in the FL1 channel and JC-1 red aggregates fluorescence Mok S, Ng C, Wong DJ, Chmielowski B, Lichter DI, Koya RC, detected at 585/20 nm in the FL2 channel. […] Data selective MEK inhibitor TAK733 against cutaneous and uveal was analyzed using the BD AccuriTM C6 Software. melanoma cell lines. […]
(§6) BD AccuriTM C6 flow cytometer (with green fluorescence 6. Atefi M, Titz B, Tsoi J, Avramis E, Le A, Ng C, Lomova A, Lassen detected in the FL1 channel). […]

A375 melanoma cells [9] = test: Mitochondrial membrane potential assay (JC-1); assay type: cell-based, human; settings: rising concentrations of leflunomide (25, 50, 100 μM), 72 hours
Experimental: as §3, §4, §5, §6

Compound: Cn1cnc2c(F)c(Nc3ccc(Br)cc3Cl)c(C(=O)NOCCO)cc21 [Selumetinib, selumetinib]
- amount of pERK protein (phospho-ERK): decreases in a dose-dependent manner
- pIC50 (A375 melanoma cells [1]): 6.72
- pIC50 (M202 melanoma cells): 6.30
- pIC50 (M229 melanoma cells): 6.70
- pIC50 (M285 melanoma cells): 6.30
- pIC50 (M375 melanoma cells; M375, 72 hours treatment): 7.00
- pIC50 (M375 melanoma cells; M375 melanoma cell line, Meki alone, combinatorial viability study (Figure 4A(i))): 7.19
- pIC50 (SKmel28 melanoma cells): 6.37
- viability at 1 µM ([2]; RD1, 1 μM selumetinib, read-out: cell viability (relative to vehicle control)): 55%
- pIC50 [2]: 5.98
- pIC50 (M296 melanoma cells): 6.33
- viability at 1 µM (SKmel5 melanoma cells; SK-MEL-5, 1 μM selumetinib, read-out: cell viability (relative to vehicle control)): 51.8%
- pIC50 (SKmel5 melanoma cells): 6.00
- tumor volume (M375 melanoma tumors): significantly reduced the average tumor volume

Compound: Cc1oncc1C(=O)Nc1ccc(C(F)(F)F)cc1 [Leflunomide, leflunomide]
- cells in G1 (G0-G1 phase) (A375 melanoma cells [3]; 25 μM leflunomide): 46.56%
- cells in sub-G1 (A375 melanoma cells [3]; 25 μM leflunomide): 5.36%
- reduction of percentage of cells in G2-M compared to the DMSO control (A375 melanoma cells [3]; 25 μM leflunomide): 50%
- cells in G1 (G0-G1 phase) (A375 melanoma cells [3]; 50 μM leflunomide): 55.05%
- cells in S-phase (A375 melanoma cells [3]; 50 μM leflunomide): 30.41%
- cells in sub-G1 (A375 melanoma cells [3]; 50 μM leflunomide): 9.12%
- cells in G1 (G0-G1 phase) (A375 melanoma cells [3]; 100 μM leflunomide): 73.56%
- cells in S-phase (A375 melanoma cells [3]; 100 μM leflunomide): 11.60%
- cells in sub-G1 (A375 melanoma cells [3]; 100 μM leflunomide): 11.84%
- pIC50 (A375 melanoma cells [1]): 4.24
- pIC50 (M202 melanoma cells): 4.17
- pIC50 (M229 melanoma cells): 4.24
- pIC50 [4]: 3.83
- pIC50 [5]: 4.32
- pIC50 (M285 melanoma cells): 4.21
- pIC50 (M375 melanoma cells; M375, 72 hours treatment): 4.19
- pIC50 (SKmel28 melanoma cells): 3.78
- pIC50 [2]: 4.07
- pIC50 (M296 melanoma cells): 3.95
- pIC50 (SKmel5 melanoma cells): 3.91
- number of BrdU positive (proliferating) cells (A375 melanoma cells [6]): dose-dependent decrease
- early apoptotic cells (quadrant Q3) (A375 melanoma cells [7]; 50 μM leflunomide): 49.3%
- late apoptotic/necrotic cells (quadrant Q2) (A375 melanoma cells [7]; 50 μM leflunomide): 44.2%
- early apoptotic cells (quadrant Q3) (A375 melanoma cells [7]; 100 μM leflunomide): 28.5%
- late apoptotic/necrotic cells (quadrant Q2) (A375 melanoma cells [7]; 100 μM leflunomide): 19.1%
- viability at 25 µM (A375 melanoma cells [7]; Homo sapiens, A-375, 25μM leflunomide, read-out: viable cells (quadrant Q4)): 68%
- viability at 50 µM (A375 melanoma cells [7]; Homo sapiens, A-375, 50μM leflunomide, read-out: viable cells (quadrant Q4)): 5.91%
- viability at 100 µM (A375 melanoma cells [7]; Homo sapiens, A-375, 100μM leflunomide, read-out: viable cells (quadrant Q4)): 51.4%
- increase in the time to reach 5000 events by flow cytometry (sample cell density) (A375 melanoma cells [8]; 100 μM leflunomide relative to the 25 μM and 50 μM treated samples): 3 fold
- increase in the amount of green fluorescence (Mitotracker green) compared to the DMSO control (A375 melanoma cells [8]; 100 μM leflunomide, 72 hours): 3 fold
- tumor volume (M375 melanoma tumors): did not reduce tumor volume
- tumor weight (M375 melanoma tumors; excised at end of 12-day treatment, leflunomide 7.5 mg/kg IP): did not reduce the tumor volume or weight
- mitochondrial membrane potential (JC-1, FL-1 channel) (A375 melanoma cells [9]): depolarized

Compound: CCCS(=O)(=O)Nc1ccc(F)c(C(=O)c2c[nH]c3ncc(-c4ccc(Cl)cc4)cc23)c1F [Vemurafenib, vemurafenib]
- pIC50 (A375 melanoma cells [1]): 6.15
- pIC50 (M202 melanoma cells): 5.77
- pIC50 (M229 melanoma cells): 6.52
- pIC50 (SKmel28 melanoma cells): 6.10
- pIC50 (M296 melanoma cells): 5.70
- pIC50 (SKmel5 melanoma cells): 6.82
